Reference: patent US20220142955A1, “METHODS OF TREATING ORGANIC ACIDEMIAS” (HemoShear Therapeutics, Inc., priority 2019, published 2022)
Read-outs that look alike come from different tables or passages of the source.

Experiments:
[1] = system: primary hepatocytes of propionic acidemia patients; assay: Propionyl-CoA from various sources in PA primary hepatocytes (Examples 2, 3); type: cell-based, human; conditions: Homo sapiens, Hepatocyte, read-out: concentration of propionyl-CoA EC50
Procedure: Primary hepatocytes isolated from livers of propionic acidemia patients are treated with increasing doses of compound 1 (0, 1, 3, 10, 30, 100, 300, 1000 μM) for 30 min. After 30 min the cells are challenged with the different sources of P-CoA, which may include ^13C-ketoisovaleric acid (KIVA) (1 mM), […] (ILE) (3 mM), ^13C-threonine (THR) (5 mM), ^13C-methionine (MET) (5 mM), ^13C-heptanoate (100 μM), or ^13C-propionate (5 mM) for 60 minutes. At the end of the challenge period, media is removed and the cells are lysed with 70% MeCN and 0.1% TFA containing 100 μM of ethymalonyl-CoA as an internal standard and harvested. Cell lysates are processed for HTMS/MS analysis.
Primary hepatocytes isolated from livers of propionic acidemia patients are treated with increasing doses of compound 5 (0, 0.1, 0.3, 1, 3, 10, 30, 100 μM) for 30 minutes. After 30 minutes the cells are challenged with the different sources of P-CoA, which may include ^13C-KIVA (1 mM), ^13C-isoleucine (3 mM), ^13C-threonine (5 mM), ^13C-methionine (5 mM), ^13C-heptanoate (100 μM), or ^13C-propionate (5 mM) for 60 minutes. At the end of the challenge period, media is removed and the cells are lysed with 70% MeCN and 0.1% TFA containing 100 μM of ethymalonyl-CoA as an internal standard and harvested. Cell lysates are processed for HTMS/MS analysis.

[2] = system: primary hepatocytes of propionic acidemia patients; assay: Reduction of 13C-propionyl-CoA and accumulation of compound-CoA ester after 13C-isoleucine challenge (Example 1); type: cell-based; conditions: Homo sapiens, Hepatocyte, 13C-labeled isoleucine, compound 0 μM to 1,000 μM
Procedure: Primary hepatocytes are isolated from explanted livers of propionic acidemia patients and are cultured on day 1 using standard protocols (see: Chapman et al. “Recapitulation of metabolic defects in a model of propionic acidemia using patient-derived primary hepatocytes” Mol. Genet. Metab. 2016, 117(3), 355-362). Approximately 2×10^5 hepatocytes are plated into each well of a collagen-coated 48-well tissue culture plate and pre-conditioned in a custom Modified Corning culture media for Hepatocells (Corning) without low levels of branched chain amino acids for 72 hours. On day 4, hepatocytes are treated with increasing doses of compound (0, 1, 3, 10, 30, 100, 300, 1000 μM) for 30 min. After 30 min the cells are challenged with ^13C-isoleucine (3 mM). At the end of the challenge period, cells are lysed in 100 μL of […] acetonitrile (MeCN) and 0.1% trifluoroacetic acid (TFA) containing 100 μM of ethymalonyl-CoA as an internal standard. Cells are removed from the well by scraping into the lysis buffer. The collected cellular samples are then dispensed into a microfuge tube. The plate wells are washed again with lysis buffer to ensure the remaining cells are dislocated from the well. All remaining collected cells are then moved into the centrifuge tube. The cellular samples are flash frozen in liquid nitrogen and stored at −80° C. To begin processing, the frozen cellular lysates are thawed on ice and vortexed. The samples are centrifuged at 20,000 g for 10 min at 4° C. and the total volume of supernatant is transferred to a no-bind 96-well plate on ice. The samples are dried under vacuum for about 2 hours and then resuspended in 150 μL of water in each well. Total volumes of samples are filtered through a prepared Durapore filter plate into a no-bind 96-well plate. The filtered samples are stored at −80° C. for HTMS/MS analysis.

PA primary hepatocytes = assay: Static cell culture, low/high propiogenic media, PA primary hepatocytes; type: cell-based, human; conditions: for EC50 / EC90: Homo sapiens, Hepatocyte
Procedure: (§1) Unlike the HemoShear Technology, this assay is carried out without constant perfusion, utilizing cell culture media that was customized to mimic plasma levels of propiogenic sources (amino acids and ketoacids) in PA and MMA patients during periods of relative metabolic stability (low propiogenic media) and acute metabolic crisis (high propiogenic media). PA and MMA pHeps, in static cell culture, were treated with Compound 5 (concentrations ranging from 0.1 μM to 100 μM) for 30 minutes in low propiogenic media, followed by either a continuation of low propiogenic media or a switch to the high propiogenic media for 1 hour. The media used during the 1-hour incubation contained propiogenic SIL amino acids and ketoacids which are metabolized into labeled P-CoA and M-CoA in the cells. The SIL amino acids and ketoacids were a mix of ^13C and MeD8 labelling, but their catabolism produced a SIL P-CoA (denoted as ^13C-P-CoA for simplicity) with the same mass, independent of the type of SIL (also true for ^13C-M-CoA).

MMA primary hepatocytes = assay: Static cell culture, low/high propiogenic media, MMA primary hepatocytes; type: cell-based, human; conditions: MMA pHeps; for EC50 / EC90: Homo sapiens, Hepatocyte
Procedure: as §1

[3] = PA pHeps, high propiogenic, static culture
[4] = PA pHeps, low propiogenic, static culture
[5] = high propiogenic, static culture
[6] = low propiogenic, static culture

Structure (SMILES): CCC(C)(C)C(=O)O [Compound 5, 2,2-dimethybutanoic acid]
- EC50 ([1]; 1 mM 13C-KIVA): 0.89 µM
- EC50 ([1]; 3 mM 13C-ILE): 0.42 µM
- EC50 ([1]; 5 mM 13C-THR): 1.24 µM
- EC50 ([1]; 5 mM 13C-propionate): 15.3 µM
- EC50 ([2]; read-out: concentration of 12C-Compound-CoA ester EC50): 0.95 µM
- EC50 ([2]; read-out: concentration of 13C-propionyl-CoA EC50): 0.43 µM
- EC50 (PA primary hepatocytes; PA pHeps, high propiogenic media, static, read-out: 13C-Propionyl-CoA (13C-P-CoA) EC50): 1.7 ± 1 µM
- EC90 (PA primary hepatocytes; PA pHeps, high propiogenic media, static, read-out: 13C-Propionyl-CoA (13C-P-CoA) EC90): 11.6 ± 7.4 µM
- EC50 (PA primary hepatocytes; PA pHeps, high propiogenic, static culture, read-out: 12C-Acetyl-CoA EC50): 0.7 ± 0.5 µM
- EC90 (PA primary hepatocytes; PA pHeps, high propiogenic, static culture, read-out: 12C-Acetyl-CoA EC90): 1.9 ± 1.3 µM
- EC50 (PA primary hepatocytes; PA pHeps, high propiogenic, static culture, read-out: CoASH EC50): 2.1 ± 1.6 µM
- EC90 (PA primary hepatocytes; PA pHeps, high propiogenic, static culture, read-out: CoASH EC90): 11.1 ± 13 µM
- EC50 (PA primary hepatocytes; PA pHeps, high propiogenic, static culture, read-out: Compound 5-CoA (formation) EC50): 2.6 ± 1.6 µM
- EC90 (PA primary hepatocytes; PA pHeps, high propiogenic, static culture, read-out: Compound 5-CoA (formation) EC90): 42 ± 45.8 µM
- EC50 (PA primary hepatocytes; PA pHeps, low propiogenic media, static, read-out: 13C-Propionyl-CoA (13C-P-CoA) EC50): 2 ± 1.8 µM
- EC90 (PA primary hepatocytes; PA pHeps, low propiogenic media, static, read-out: 13C-Propionyl-CoA (13C-P-CoA) EC90): 6.9 ± 5.4 µM
- EC50 (PA primary hepatocytes; PA pHeps, low propiogenic, static culture, read-out: 12C-Acetyl-CoA EC50): 0.4 ± 0.2 µM
- EC90 (PA primary hepatocytes; PA pHeps, low propiogenic, static culture, read-out: 12C-Acetyl-CoA EC90): 1.6 ± 1.3 µM
- EC50 (PA primary hepatocytes; PA pHeps, low propiogenic, static culture, read-out: CoASH EC50): 0.9 ± 0.3 µM
- EC90 (PA primary hepatocytes; PA pHeps, low propiogenic, static culture, read-out: CoASH EC90): 9.1 ± 5.8 µM
- EC50 (PA primary hepatocytes; PA pHeps, low propiogenic, static culture, read-out: Compound 5-CoA (formation) EC50): 1.4 ± 0.6 µM
- EC90 (PA primary hepatocytes; PA pHeps, low propiogenic, static culture, read-out: Compound 5-CoA (formation) EC90): 15.3 ± 11.3 µM
- EC90 (PA primary hepatocytes; static cell culture, PA and MMA pHeps, low and high propiogenic media together, read-out: average EC90 value across all biomarkers): 11 ± 9.6 µM
- 13C-Propionyl-CoA (13C-P-CoA) % change at 30 μM (PA primary hepatocytes; PA pHeps, high propiogenic media, static): −85.3±9.1%
- 12C-Acetyl-CoA Percent change (30 μM) (PA primary hepatocytes; [3]): −27 ± 3.4%
- CoASH Percent change (30 μM) (PA primary hepatocytes; [3]): −48 ± 14.3%
- 13C-Propionyl-CoA (13C-P-CoA) % change at 30 μM (PA primary hepatocytes; PA pHeps, low propiogenic media, static): −76.4±12.6%
- 12C-Acetyl-CoA Percent change (30 μM) (PA primary hepatocytes; [4]): −36.6 ± 13.5%
- CoASH Percent change (30 μM) (PA primary hepatocytes; [4]): −55.2 ± 7.1%
- EC50 (MMA primary hepatocytes; high propiogenic media, static, read-out: 12C-Methylmalonyl-CoA (13C-M-CoA) EC50): 2.7 ± 1.6 µM
- EC90 (MMA primary hepatocytes; high propiogenic media, static, read-out: 12C-Methylmalonyl-CoA (13C-M-CoA) EC90): 21.2 ± 2 µM
- EC50 (MMA primary hepatocytes; high propiogenic media, static, read-out: 13C-Methymalonic acid EC50): 1.1 ± 0.9 µM
- EC90 (MMA primary hepatocytes; high propiogenic media, static, read-out: 13C-Methymalonic acid EC90): 4.6 ± 3 µM
- EC50 (MMA primary hepatocytes; high propiogenic media, static, read-out: 13C-Propionyl-CoA (13C-P-CoA) EC50): 1.6 ± 0.8 µM
- EC90 (MMA primary hepatocytes; high propiogenic media, static, read-out: 13C-Propionyl-CoA (13C-P-CoA) EC90): 48.2 ± 47.5 µM
- EC50 (MMA primary hepatocytes; high propiogenic, static culture, read-out: 12C-Acetyl-CoA EC50): 1.4 ± 1.4 µM
- EC90 (MMA primary hepatocytes; high propiogenic, static culture, read-out: 12C-Acetyl-CoA EC90): 6.4 ± 7.1 µM
- EC50 (MMA primary hepatocytes; high propiogenic, static culture, read-out: CoASH EC50): 13.1 ± 14.8 µM
- EC90 (MMA primary hepatocytes; high propiogenic, static culture, read-out: CoASH EC90): 65.6 ± 81.2 µM
- EC50 (MMA primary hepatocytes; high propiogenic, static culture, read-out: Compound 5-CoA (formation) EC50): 5.4 ± 2.8 µM
- EC90 (MMA primary hepatocytes; high propiogenic, static culture, read-out: Compound 5-CoA (formation) EC90): 80.1 ± 57 µM
- EC50 (MMA primary hepatocytes; low propiogenic media, static, read-out: 12C-Methylmalonyl-CoA (13C-M-CoA) EC50): 2.9 ± 1.6 µM
- EC90 (MMA primary hepatocytes; low propiogenic media, static, read-out: 12C-Methylmalonyl-CoA (13C-M-CoA) EC90): 30.9 ± 16.2 µM
- EC50 (MMA primary hepatocytes; low propiogenic media, static, read-out: 13C-Methymalonic acid EC50): 1.2 ± 1.3 µM
- EC90 (MMA primary hepatocytes; low propiogenic media, static, read-out: 13C-Methymalonic acid EC90): 5.2 ± 3.3 µM
- EC50 (MMA primary hepatocytes; low propiogenic media, static, read-out: 13C-Propionyl-CoA (13C-P-CoA) EC50): 1.3 ± 0.6 µM
- EC90 (MMA primary hepatocytes; low propiogenic media, static, read-out: 13C-Propionyl-CoA (13C-P-CoA) EC90): 15.7 ± 18 µM
- EC50 (MMA primary hepatocytes; low propiogenic, static culture, read-out: 12C-Acetyl-CoA EC50): 2.5 ± 2.6 µM
- EC90 (MMA primary hepatocytes; low propiogenic, static culture, read-out: 12C-Acetyl-CoA EC90): 28.4 ± 52 µM
- EC50 (MMA primary hepatocytes; low propiogenic, static culture, read-out: CoASH EC50): 2.3 ± 1.6 µM
- EC90 (MMA primary hepatocytes; low propiogenic, static culture, read-out: CoASH EC90): 14.2 ± 13.5 µM
- EC50 (MMA primary hepatocytes; low propiogenic, static culture, read-out: Compound 5-CoA (formation) EC50): 2 ± 0.7 µM
- EC90 (MMA primary hepatocytes; low propiogenic, static culture, read-out: Compound 5-CoA (formation) EC90): 18 ± 15.7 µM
- 12C-Methylmalonyl-CoA (13C-M-CoA) % change at 30 μM (MMA primary hepatocytes; high propiogenic media, static): −73±5.8%
- 13C-Methymalonic acid % change at 30 μM (MMA primary hepatocytes; high propiogenic media, static): −91 ± 4%
- 13C-Propionyl-CoA (13C-P-CoA) % change at 30 μM (MMA primary hepatocytes; high propiogenic media, static): −75.9±7.3%
- 12C-Acetyl-CoA Percent change (30 μM) (MMA primary hepatocytes; [5]): −14.6 ± 12.6%
- CoASH Percent change (30 μM) (MMA primary hepatocytes; [5]): −28.7 ± 7.3%
- 12C-Methylmalonyl-CoA (13C-M-CoA) % change at 30 μM (MMA primary hepatocytes; low propiogenic media, static): −76.5±13.2%
- 13C-Methymalonic acid % change at 30 μM (MMA primary hepatocytes; low propiogenic media, static): −83.2 ± 5%
- 13C-Propionyl-CoA (13C-P-CoA) % change at 30 μM (MMA primary hepatocytes; low propiogenic media, static): −77.6±9.8%
- 12C-Acetyl-CoA Percent change (30 μM) (MMA primary hepatocytes; [6]): −35.5 ± 18.1%
- CoASH Percent change (30 μM) (MMA primary hepatocytes; [6]): −47.7 ± 13.4%
